The test system of experiment [1] is Phosphorylation of ERK1/2 in A-427 cells. Briefly: Phospho-ERK1/2 MSD Assay (A-427 cells). Format: cell-based. To be noted: Homo sapiens, A-427, 2 h, 2 h treatment, read-out: p-ERK (A427 cells) IC50. The method in brief: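 ERK1/2 phosphorylation measured by Meso Scale whole-cell lysate assay after A-427 cells were exposed to a titration of compound for 2 h at 37 °C.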

In experiment [2] the test system is Phosphorylation of ERK1/2 in AsPC-1 cells. Briefly: Phospho-ERK1/2 MSD Assay (AsPC-1 cells). Format: cell-based. To be noted: Homo sapiens, ASPC1, 2 h, 2 hours treatment, read-out: p-ERK (AsPC-1 cells) IC50. The method in brief:
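Read-out: MSD electrochemiluminescent detection of phosphorylated ERK1/2 in whole-cell lysates, fitted to a 4-parameter logistic curve for IC50. Prior to lysis, AsPC-1 cells (25,000 per well) received a 2 h compound dose-response at 37 °C.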

Experiment [3] has as its target GDP-bound KRAS protein (aa 1-169), containing both G12D and C118A amino acid substitutions (Homo sapiens, UniProt P01116, C118A/G12D). Briefly: KRAS G12D Coupled Nucleotide Exchange Assay. Format: biochemical. As to conditions: 2 h compound pre-incubation. As for the experimental part:
Following compound pre-incubation, purified SOS protein (aa 564-1049) and GTP (Roche 10106399001) were added to the assay wells and incubated for an additional 30 min. […] The assay plates were then read on a PerkinElmer EnVision Multilabel Reader, using AlphaScreen® technology, and data were analyzed using a 4-parameter logistic model to calculate IC50 values.

The target of experiment [4] is His-tagged KRAS G12D protein (Homo sapiens, UniProt P01116, G12D). Briefly: KRAS G12D TR-FRET Assay. Format: binding.
His-tagged KRAS G12D protein, sequence (P01116 1-188 isoform P01116-2 G12D): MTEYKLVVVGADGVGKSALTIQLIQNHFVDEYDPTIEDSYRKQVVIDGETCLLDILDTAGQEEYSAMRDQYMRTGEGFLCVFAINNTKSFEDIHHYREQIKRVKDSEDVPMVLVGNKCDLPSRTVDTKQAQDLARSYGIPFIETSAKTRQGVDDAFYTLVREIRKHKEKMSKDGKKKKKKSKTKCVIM

This note sets out measurements from patent publication US20250059205A1, “Heterocyclic Compounds and Methods of Use” (AMGEN INC., priority 2021, published 2025).

GDP-bound KRAS protein (aa 1-169), containing both G12D and C118A amino acid substitutions, sequence (P01116 1-169 isoform P01116-2 G12D/C118A): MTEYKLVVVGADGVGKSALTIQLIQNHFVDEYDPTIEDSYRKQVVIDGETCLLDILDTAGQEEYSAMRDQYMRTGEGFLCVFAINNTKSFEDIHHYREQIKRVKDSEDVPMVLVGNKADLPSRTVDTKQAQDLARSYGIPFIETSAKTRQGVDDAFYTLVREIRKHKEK

Regarding `Oc1cc(-c2ccc3c(N4C[C@H]5CC[C@@H](C4)N5)nc(OC[C@@]45CCCN4C[C@H](F)C5)nc3c2)c2c(F)c(F)ccc2c1` [Example 77, 4-(4-((1R,5S)-3,8-diazabicyclo[3.2. 1]octan-3-yl)-2-(((2R,7aS)-2-fluorotetrahydro-1H-pyrrolizin-7a(5H)-yl)methoxy)quinazolin-7-yl)-5,6-difluoronaphthalen-2-ol], the half-maximal inhibitory concentration (IC50) was found to be 38 nM in experiment [1], 62 nM in experiment [2] and 3 nM in experiment [4]. Besides, in experiment [3], the “Avg 2 h Coupled Exchange IC50” value turned out to be 2 nM.

As to `CCc1cccc2cc(O)cc(-c3ccc4c(N5CCC6CCC(C5)N6)nc(OC[C@@]56CCCN5C[C@H](F)C6)nc4c3F)c12` (stereo partly drawn) [Example 154, 4-(4-(3,9-diazabicyclo[4.2.1]nonan-3-yl)-8-fluoro-2-(((2R,7aS)-2-fluorotetrahydro-1H-pyrrolizin-7a(5H)-yl)methoxy)quinazolin-7-yl)-5-ethylnaphthalen-2-ol], the half-maximal inhibitory concentration (IC50) in experiment [1] was 879 nM; in experiment [2], 1030 nM; in experiment [4], 13 nM. Moreover, the “Avg 2 h Coupled Exchange IC50” value in experiment [3] was 12 nM.

As for `Cc1cccc2cccc(-c3c(F)cc4c(N5[C@@H]6CC[C@H]5CNC6)nc(OC[C@@]56CCCN5C[C@H](F)C6)nc4c3F)c12` [Example 23, 4-((1R,5S)-3,8-diazabicyclo[3.2. 1]octan-8-yl)-6,8-difluoro-2-(((2R,7aS)-2-fluorotetrahydro-1H-pyrrolizin-7a(5H)-yl)methoxy)-7-(8-methylnaphthalen-1-yl)quinazoline], the concentration for half-maximal inhibition (IC50) in experiment [1] was 10300 nM; in experiment [2] it was 2600 nM; in experiment [4], 44 nM. In experiment [3], the “Avg 2 h Coupled Exchange IC50” value came out at 19 nM.

For the molecule `CC(O)COc1nc(N2C[C@H]3CC[C@@H](C2)N3)c2cc(F)c(-c3cc(O)cc4ccccc34)c(F)c2n1` (stereo partly drawn) [Example 125, 4-(4-((1R,5S)-3,8-diazabicyclo[3.2.1]octan-3-yl)-6,8-difluoro-2-(2-hydroxypropoxy)quinazolin-7-yl)naphthalen-2-ol], the half-inhibitory concentration (IC50) was greater than 10000 nM in experiment [1], greater than 10000 nM in experiment [2] and 114 nM in experiment [4]. Besides, the “Avg 2 h Coupled Exchange IC50” value in experiment [3] came to 39 nM.

On to `CN1C[C@H](F)C[C@H]1COc1nc(N2[C@@H]3CC[C@H]2CNC3)c2cc(F)c(-c3cc(O)cc4cccnc34)c(F)c2n1` [Example 30, 8-(4-((1R,5S)-3,8-diazabicyclo[3.2. 1]octan-8-yl)-6,8-difluoro-2-(((2S,4R)-4-fluoro-1-methylpyrrolidin-2-yl)methoxy)quinazolin-7-yl)quinolin-6-ol], for which the figures for the IC50 in experiment [1], in experiment [2] and in experiment [4] were 17700 nM, 21500 nM and 559 nM, respectively. For the same molecule, in experiment [3], the “Avg 2 h Coupled Exchange IC50” value was 158 nM.

`CCc1c(F)ccc2cc(O)cc(-c3c(F)cc4c(N5C[C@H]6CCC[C@@H](C5)N6)nc(OC[C@@]56CCCN5C[C@H](F)C6)nc4c3F)c12` [Example 119, 4-(4-((1R,5S)-3,9-diazabicyclo[3.3.1]nonan-3-yl)-6,8-difluoro-2-(((2R,7aS)-2-fluorotetrahydro-1H-pyrrolizin-7a(5H)-yl)methoxy)quinazolin-7-yl)-5-ethyl-6-fluoronaphthalen-2-ol]: the half-inhibitory concentration (IC50) came to 156 nM in experiment [1], 276 nM in experiment [2] and 5 nM in experiment [4]. In addition, the “Avg 2 h Coupled Exchange IC50” value in experiment [3] was found to be 4 nM.

In the case of `Nc1cc2ccccc2c(-c2ccc3c(N4CC5CCC(C4)N5)nc(OC[C@@]45CCCN4C[C@H](F)C5)nc3c2F)n1` [Example 220], the results for the 50% inhibitory concentration (IC50) in experiment [1], in experiment [2] and in experiment [4] were 2860 nM, 4400 nM and 60 nM, respectively. For the same molecule, the “Avg 2 h Coupled Exchange IC50” value in experiment [3] amounted to 22 nM.

For the molecule `Fc1c(-c2ccc(Cl)c3ccccc23)c(Cl)cc2c(N3C[C@H]4CC[C@@H](C3)N4)nc(OC[C@@]34CCCN3C[C@H](F)C4)nc12` [Example 79, 4-((1R,5S)-3,8-diazabicyclo[3.2. 1]octan-3-yl)-6-chloro-7-(4-chloronaphthalen-1-yl)-8-fluoro-2-(((2R,7aS)-2-fluorotetrahydro-1H-pyrrolizin-7a(5H)-yl)methoxy) quinazoline], the IC50 is greater than 10000 nM in experiment [1], 3430 nM in experiment [2] and 26 nM in experiment [4]. Further, the “Avg 2 h Coupled Exchange IC50” value in experiment [3] worked out at 26 nM.

On to `Fc1c(-c2cccc3cccc(Cl)c23)ccc2c(N3[C@@H]4CC[C@H]3CNC4)nc(OC[C@@]34CCCN3C[C@H](F)C4)nc12` [Example 24, 4-((1R,5S)-3,8-diazabicyclo[3.2. 1]octan-8-yl)-7-(8-chloronaphthalen-1-yl)-8-fluoro-2-(((2R,7aS)-2-fluorotetrahydro-1H-pyrrolizin-7a(5H)-yl)methoxy) quinazoline], for which the IC50 in experiment [1] turned out to be 3910 nM; in experiment [2] it was 1390 nM; in experiment [4], 31 nM. In addition, the “Avg 2 h Coupled Exchange IC50” value in experiment [3] was found to be 16 nM.

Consider `Oc1cc(-c2ccc3c(N4C[C@H]5CC[C@@H](C4)N5)nc(OC[C@@]45CCCN4C[C@H](F)C5)nc3c2)c2ccccc2c1` [Example 41, 4-(4-((1R,5S)-3,8-diazabicyclo[3.2. 1]octan-3-yl)-2-(((2R,7aS)-2-fluorotetrahydro-1H-pyrrolizin-7a(5H)-yl)methoxy)quinazolin-7-yl)naphthalen-2-ol], for which the half-maximal inhibitory concentration (IC50) stood at 74 nM in experiment [1], 182 nM in experiment [2] and 2 nM in experiment [4]. Besides, the “Avg 2 h Coupled Exchange IC50” value in experiment [3] was determined as 2 nM.

Regarding `Oc1cc(-c2ccc3c(N4[C@@H]5CC[C@H]4CNC5)nc(OC[C@@]45CCCN4C[C@H](F)C5)nc3c2)c2ccccc2c1` [Example 11, 4-(4-((1R,5S)-3,8-diazabicyclo[3.2. 1]octan-8-yl)-2-(((2R,7aS)-2-fluorotetrahydro-1H-pyrrolizin-7a(5H)-yl)methoxy)quinazolin-7-yl)naphthalen-2-ol], the concentration for half-maximal inhibition (IC50) in experiment [1] stood at 2510 nM; in experiment [2], 1530 nM; in experiment [4], 21 nM. Moreover, the “Avg 2 h Coupled Exchange IC50” value in experiment [3] was 9 nM.

On to `Cc1c(Cl)cc2[nH]ncc2c1-c1c(F)cc2c(N3C[C@H]4CC[C@@H](C3)N4)nc(OC[C@@]34CCCN3C[C@H](F)C4)nc2c1F` [Example 74, 4-((1R,5S)-3,8-diazabicyclo[3.2. 1]octan-3-yl)-7-(6-chloro-5-methyl-1H-indazol-4-yl)-6,8-difluoro-2-(((2R,7aS)-2-fluorotetrahydro-1H-pyrrolizin-7a(5H)-yl)methoxy) quinazoline], for which the IC50 in experiment [1] came out at 148 nM; in experiment [2], 386 nM; in experiment [4], 7 nM. In addition, the “Avg 2 h Coupled Exchange IC50” value in experiment [3] worked out at 7 nM.

For `Nc1cc(-c2c(F)cc3c(N4C[C@@H]5CC[C@H]4CN5)nc(OC[C@@]45CCCN4C[C@H](F)C5)nc3c2F)c2ccccc2c1` [Example 117, 4-(4-((1S,4S)-2,5-diazabicyclo[2.2.2]octan-2-yl)-6,8-difluoro-2-(((2R,7aS)-2-fluorotetrahydro-1H-pyrrolizin-7a(5H)-yl)methoxy)quinazolin-7-yl)naphthalen-2-amine], the half-inhibitory concentration (IC50) in experiment [1] worked out at 411 nM; in experiment [2] it was 899 nM; in experiment [4] it was 13 nM. Moreover, the “Avg 2 h Coupled Exchange IC50” value in experiment [3] is 7 nM.

Regarding `Nc1ccc(C2CC2)c(-c2c(F)cc3c(N4C[C@@H]5CC[C@H]4CN5)nc(OC[C@@]45CCCN4C[C@H](F)C5)nc3c2F)c1` [Example 115, 3-(4-((1S,4S)-2,5-diazabicyclo[2.2.2]octan-2-yl)-6,8-difluoro-2-(((2R,7aS)-2-fluorotetrahydro-1H-pyrrolizin-7a(5H)-yl)methoxy)quinazolin-7-yl)-4-cyclopropylaniline], the IC50 in experiment [1] was determined as 2740 nM; in experiment [2] it was 2790 nM; in experiment [4], 32 nM. Besides, the “Avg 2 h Coupled Exchange IC50” value in experiment [3] was 23 nM.

As for `CCc1c(F)ccc2cc(O)cc(-c3c(F)cc4c(N5C6CCC5C(=O)NC6)nc(OC[C@@]56CCCN5C[C@H](F)C6)nc4c3F)c12` (single isomer, unassigned) [Example 175], the half-maximal inhibitory concentration (IC50) in experiment [1] turned out to be 448 nM; in experiment [2] it was 1560 nM; in experiment [4], 6 nM. Further, in experiment [3], the “Avg 2 h Coupled Exchange IC50” value came to 4 nM.

In the case of `CCc1c(F)ccc2cccc(-c3c(F)cc4c(N5C[C@H]6CC[C@@H](C5)N6)nc(OC[C@@]56CCCN5C[C@H](F)C6)nc4c3F)c12` [Example 69, 4-((1R,5S)-3,8-diazabicyclo[3.2. 1]octan-3-yl)-7-(8-ethyl-7-fluoronaphthalen-1-yl)-6,8-difluoro-2-(((2R,7aS)-2-fluorotetrahydro-1H-pyrrolizin-7a(5H)-yl)methoxy) quinazoline], the half-maximal inhibitory concentration (IC50) was 1000 nM in experiment [1], 514 nM in experiment [2] and 4 nM in experiment [4]. The “Avg 2 h Coupled Exchange IC50” value in experiment [3] came out at 2 nM.

For `Oc1ccc(-c2c(Cl)cc3c(N4C[C@H]5CC[C@@H](C4)N5)nc(OC[C@@]45CCCN4C[C@H](F)C5)nc3c2F)c2ccccc12` [Example 80, 4-(4-((1R,5S)-3,8-diazabicyclo[3.2. 1]octan-3-yl)-6-chloro-8-fluoro-2-(((2R,7aS)-2-fluorotetrahydro-1H-pyrrolizin-7a(5H)-yl)methoxy)quinazolin-7-yl)naphthalen-1-ol], the IC50 worked out at 649 nM in experiment [1], 607 nM in experiment [2] and 10 nM in experiment [4]. For the same molecule, the “Avg 2 h Coupled Exchange IC50” value in experiment [3] turned out to be 4 nM.
